According to paper PMC7554340, “A Novel Dual-Targeted α-Helical Peptide With Potent Antifungal Activity Against Fluconazole-Resistant Candida albicans Clinical Isolates” (Frontiers in Microbiology, 2020):
pIC50: −log10 of the molar value. Where two headings read alike, the source gives them in different places. No end group written: not given here.

Columns and labels:
C. albicans cgmcc 2.2086 = assay: Antifungal activity assay (broth microdilution, MIC/MFC); format: cell-based, Candida albicans; details: for MIC: pH 7
[1] = test system: C. tropicalis cgmcc 2.1975; assay: as above; format: cell-based, Candida tropicalis; details: for MIC: pH 7
[2] = test system: C. parapsilosis cgmcc 2.3989; assay: as above; format: cell-based, Candida parapsilosis; details: for MIC: pH 7
C. albicans 56452 = details: 56452, 48 h; for MIC: pH 7
C. albicans 56214 = details: 56214, 48 h; for MIC: pH 7
C. albicans 14936 = details: 14936, 48 h; for MIC: pH 7
C. albicans 17546 = details: 17546, 48 h; for MIC: pH 7
C. albicans 58288 = details: 58288, 48 h; for MIC: pH 7
C. albicans sp3902 = details: sp3902, 48 h; for MIC: pH 7
C. albicans sp3903 = details: sp3903, 48 h; for MIC: pH 7
C. albicans sp3931 = details: sp3931, 48 h; for MIC: pH 7
C. albicans sp3876 = details: sp3876, 48 h; for MIC: pH 7
human erythrocytes [3] = test system: human erythrocytes
IPEC-J2 and PMEC cells [4] = test system: IPEC-J2 and PMEC cells
Candida strains = details: 48 h
human erythrocytes [5] = assay: Hemolysis assay; details: minimal hemolytic concentration inducing 10% hemolysis of human erythrocytes; 1 h, 37°C, hemoglobin at 570 nm; probit regression; three independent experiments
IPEC-J2 and PMEC cells [6] = assay: Cytotoxicity MTT assay, statements for both cell lines; details: 24 h, 1-64 μM
[7] = 50 μl of MIC wells plated on YPD agar, 28°C, 48 h, lowest concentration that completely killed fungal cells, consensus of at least three independent experiments

Row | Substance | MIC (C. albicans cgmcc 2.2086; cgmcc 2.2086, 48 h) [µM] | MIC ([1]; cgmcc 2.1975, 48 h) [µM] | MIC ([2]; cgmcc 2.3989, 48 h) [µM] | MFC (C. albicans 56452) [µM] | MIC (C. albicans 56452) [µM] | MFC (C. albicans 56214) [µM] | MIC (C. albicans 56214) [µM] | MFC (C. albicans 14936) [µM] | MIC (C. albicans 14936) [µM] | MFC (C. albicans 17546) [µM] | MIC (C. albicans 17546) [µM] | MFC (C. albicans 58288) [µM] | MIC (C. albicans 58288) [µM] | MFC (C. albicans sp3902) [µM] | MIC (C. albicans sp3902) [µM] | MFC (C. albicans sp3903) [µM] | MIC (C. albicans sp3903) [µM] | MFC (C. albicans sp3931) [µM] | MIC (C. albicans sp3931) [µM] | MFC (C. albicans sp3876) [µM] | also measured
1 | KIGKFLLFKGIKKIGKFL-NH2 [KF3] | 32 | 8 | 32 | 16 | 16 | 16 | 16 | 64 | 64 | 64 | 64 | 32 | 32 | 16 | 16 | 32 | 32 | 32 | 32 | 64 | MFC (C. albicans cgmcc 2.2086; [7]): 32 µM; MFC [1, 7]: 8 µM; MFC [2, 7]: 32 µM; MIC (C. albicans sp3876): 64 µM; HC10 (human erythrocytes [3]; red cells of human, 1 h): >64 µM; pIC50 (IPEC-J2 cells; 24 h): 4.31; pIC50 (PMEC cells; 24 h): 4.22; cytotoxicity at 64 μM (in words) (IPEC-J2 and PMEC cells [4]): sharp rise in cytotoxicity
2 | KIGKVLLVKGIKKIGKVL-NH2 [KV3] | 32 | 16 | 32 | 64 | 32 | 32 | 32 | >64 | >64 | 64 | 64 | 64 | 64 | 64 | 64 | 64 | 64 | 64 | 64 | 32 | MFC (C. albicans cgmcc 2.2086; cgmcc 2.2086, 48 h): 32 µM; MFC ([1]; cgmcc 2.1975, 48 h): 16 µM; MFC ([2]; cgmcc 2.3989, 48 h): 32 µM; MIC (C. albicans sp3876): 16 µM; MIC values on Candida strains (range) (Candida strains): 16 to 64 µM; pIC50 (IPEC-J2 cells; IPEC-J2 cells, MTT, 24 h treatment, 1-64 μM, probit regression): < 4.19; pIC50 (PMEC cells; PMEC cells, MTT, 24 h treatment, 1-64 μM, probit regression): < 4.19; HC10 (human erythrocytes [5]): >64 µM; cytotoxic effects (in words) (IPEC-J2 and PMEC cells [6]): negligible cytotoxic effects
3 | RIGRFLLFRGIRRIGRFL-NH2 [RF3] | 8 | 8 | 16 | 8 | 8 | 8 | 4 | 8 | 8 | 16 | 8 | 8 | 8 | 8 | 8 | 8 | 8 | 8 | 8 | 4 | MFC (C. albicans cgmcc 2.2086; [7]): 8 µM; MFC [1, 7]: 8 µM; MFC [2, 7]: 16 µM; MIC (C. albicans sp3876): 4 µM; HC10 (human erythrocytes [3]): > 64 µM; pIC50 (IPEC-J2 cells; 24 h): 4.22; pIC50 (PMEC cells; 24 h): 4.27; cytotoxicity at 64 μM (in words) (IPEC-J2 and PMEC cells [4]): sharp rise in cytotoxicity
